In the supplement of paper PMC11061612:

Key:
[1] = compound: CC1=CN2[C@@H](C1)C=NC3=CC(=C(C=C3C2=O)OC)OCCCCCOC4=C(C=C5C(=C4)N=C[C@@H]6CC(=CN6C5=O)C)OC [SG3199]; conditions: max 0.001 µM
In short: (§1)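 Cancer cell lines in 1536-well plates (7.5 μl DMEM/F12 or RPMI, 10% FBS) were held 24 hours at 37°C and 5% CO2 and then dosed for 72 hours at a final DMSO of typically 0.2%. Viability was taken from CellTiter-Glo 2.0 luminescence, scaled between blank-well and DMSO-well means. Curves were fitted as two-parameter logistic models with a non-linear mixed effects model, from which the single-agent IC50 was taken.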

[2] = compound: NC1(c2ccc(-c3nc4ccn5c(=O)[nH]nc5c4cc3-c3ccccc3)cc2)CCC1 [MK-2206]; conditions: max 10 µM
In short: as §1

[3] = compound: Cc1c2c(nn1C)CSCc1cc(n(C)n1)CSc1cc(c3ccccc3c1)OCCCc1c(C(=O)O)n(C)c3c-2c(Cl)ccc13 [AZD5991]; conditions: max 1 µM
In short: as §1

[4] = compound: Cc1cc2ncnn2cc1Nc1ncc2c(n1)n(C1CCOCC1)c(=O)n2C [AZD7648]; conditions: max 10 µM
In short: as §1

[5] = compound: CC1=C(C(=CC=C1)Cl)NC(=O)C2=CN=C(S2)NC3=CC(=NC(=N3)C)N4CCN(CC4)CCO [Dasatinib]; conditions: max 2 µM
In short: as §1

[6] = compound: O=c1[nH]cc(F)c(=O)[nH]1 [5-Fluorouracil]; conditions: max 20 µM
In short: as §1

[7] = compound: CC(C)n1c(=O)n(C)c2cnc3cc(F)c(-c4ccc(OCCCN5CCCCC5)nc4)cc3c21 [AZD1390]; conditions: max 0.3 µM
In short: as §1

[8] = compound: COc1cc([C@@H]2c3cc4c(cc3[C@@H](O[C@@H]3O[C@@H]5CO[C@@H](C)O[C@H]5[C@H](O)[C@H]3O)[C@H]3COC(=O)[C@H]23)OCO4)cc(OC)c1O [Etoposide]; conditions: max 10 µM
In short: as §1

[9] = compound: COc1nnc2ccc(N3CCC(c4ccc(OCCN5CCN(C)C(=O)[C@H]5C)cc4)CC3)nn12 [AZD5153]; conditions: max 1 µM
In short: as §1

[10] = compound: CC1(C)CCC(CN2CCN(c3ccc(C(=O)NS(=O)(=O)c4ccc(NCC5CCOCC5)c([N+](=O)[O-])c4)c(Oc4cnc5[nH]ccc5c4)c3)CC2)=C(c2ccc(Cl)cc2)C1 [Venetoclax]; conditions: max 1 µM
In short: as §1

[11] = compound: CC(=O)O[C@H]1C(=O)[C@@]2(C)[C@H]([C@H](OC(=O)c3ccccc3)[C@]3(O)C[C@H](OC(=O)[C@H](O)[C@@H](NC(=O)c4ccccc4)c4ccccc4)C(C)=C1C3(C)C)[C@]1(OC(C)=O)CO[C@@H]1C[C@@H]2O [Paclitaxel]; conditions: max 3 µM
In short: as §1

[12] = compound: COc1cccc2c1C(=O)c1c(O)c3c(c(O)c1C2=O)C[C@@](O)(C(=O)CO)C[C@@H]3O[C@H]1C[C@H](N)[C@H](O)[C@H](C)O1 [Doxorubicin]; conditions: max 1 µM
In short: as §1

[13] = compound: CCN(CCO)CCCOc1ccc2c(Nc3cc(CC(=O)Nc4cccc(F)c4)[nH]n3)ncnc2c1 [AZD2811]; conditions: max 1 µM
In short: as §1

[14] = compound: C[C@@H](Nc1cc(F)cc(F)c1)c1cc(C(=O)N(C)C)cc2c(=O)cc(N3CCOCC3)oc12 [AZD8186]; conditions: max 10 µM
In short: as §1

[15] = compound: COc1cccc(OCCCN)c1-c1cc(Nc2cnc(C#N)cn2)n[nH]1 [Prexasertib]; conditions: max 1 µM
In short: as §1

[16] = compound: C[C@@H]1COCCN1C2=NC(=NC(=C2)C3(CC3)[S@](=N)(=O)C)C4=C5C=CNC5=NC=C4 [AZD6738]; conditions: max 10 µM
In short: as §1

[17] = compound: Cc1nc(-c2cn3c(n2)-c2ccc(-c4cnn(C(C)(C)C(N)=O)c4)cc2OCC3)n(C(C)C)n1 [Taselisib]; conditions: max 10 µM
In short: as §1

[18] = compound: C[C@@H](Oc1cc(-c2cnn(C3CCNCC3)c2)cnc1N)c1c(Cl)ccc(F)c1Cl [Crizotinib]; conditions: max 10 µM
In short: as §1

[19] = compound: CN(C)CCCOc1ccc(-c2ccc3ncc4c(c3c2)n(C2CCOCC2)c(=O)n4C)cn1 [AZD0156]; conditions: max 3 µM
In short: as §1

[20] = compound: C=CCn1c(=O)c2cnc(Nc3ccc(N4CCN(C)CC4)cc3)nc2n1-c1cccc(C(C)(C)O)n1 [AZD1775]; conditions: max 3 µM
In short: as §1

[21] = compound: Cn1cnc2c(F)c(Nc3ccc(Br)cc3Cl)c(C(=O)NOCCO)cc21 [Selumetinib]; conditions: max 10 µM
In short: as §1

[22] = compound: COc1cc2ncnc(Nc3ccc(F)c(Cl)c3)c2cc1OCCCN1CCOCC1 [Gefitinib]; conditions: max 10 µM
In short: as §1

[23] = compound: O=C(Nc1ccc2[nH]nc(-c3ccncc3)c2c1)[C@@H]1CCN(CC(=O)N2CCN(c3ccc(-c4ncccn4)cc3)CC2)C1; conditions: max 5 µM
In short: as §1

[24] = compound: C[C@@H](c1ccc2nccn2c1)n1nnc2ncc(-c3cnn(C)c3)nc21 [Savolitinib]; conditions: max 1 µM
In short: as §1

[25] = compound: N#Cc1cnc(Nc2cc(NC[C@H]3CNCCO3)c(C(F)(F)F)cn2)cn1 [SRA737]; conditions: max 10 µM
In short: as §1

[26] = compound: O=C(c1cc(Cc2n[nH]c(=O)c3ccccc23)ccc1F)N1CCN(C(=O)C2CC2)CC1 [Olaparib]; conditions: max 10 µM
In short: as §1

[27] = compound: CCc1c2c(nc3ccc(O)cc13)-c1cc3c(c(=O)n1C2)COC(=O)[C@]3(O)CC [SN-38]; conditions: max 0.3 µM
In short: as §1

[28] = compound: COc1cc(Nc2ncc3c(n2)-c2ccc(Cl)cc2C(c2c(F)cccc2OC)=NC3)ccc1C(=O)O [Alisertib]; conditions: max 10 µM
In short: as §1

[29] = compound: Nc1ccn([C@@H]2O[C@H](CO)[C@@H](O)C2(F)F)c(=O)n1 [Gemcitabine]; conditions: max 0.3 µM
In short: as §1

[30] = compound: C1CN(CCC1(C(=O)N[C@@H](CCO)C2=CC=C(C=C2)Cl)N)C3=NC=NC4=C3C=CN4 [AZD5363]; conditions: max 10 µM
In short: as §1

[31] = compound: CC(=O)c1c(C)c2cnc(Nc3ccc(N4CCNCC4)cn3)nc2n(C2CCCC2)c1=O [Palbociclib]; conditions: max 10 µM
In short: as §1

[32] = compound: CN(CC[C@H](CSC1=CC=CC=C1)NC2=C(C=C(C=C2)S(=O)(=O)NC(=O)C3=CC=C(C=C3)N4CCC(CC4)[C@H](C5=CC=CC=C5C6=CC=C(C=C6)Cl)O)S(=O)(=O)C(F)(F)F)CCO [AZD4320]; conditions: max 1 µM
In short: as §1

[33] = compound: CS(=O)(=O)CCNCc1ccc(-c2ccc3ncnc(Nc4ccc(OCc5cccc(F)c5)c(Cl)c4)c3c2)o1 [Lapatinib]; conditions: max 10 µM
In short: as §1

[34] = compound: C1CC(C1)(C(=O)[O-])C(=O)[O-].N.N.[Pt+2] [Carboplatin]; conditions: max 10 µM
In short: as §1

[35] = compound: CC(=O)Nc1cccc(-n2c(=O)n(C3CC3)c(=O)c3c(Nc4ccc(I)cc4F)n(C)c(=O)c(C)c32)c1 [Trametinib]; conditions: max 1 µM
In short: as §1

Cell Line	IC50, cell viability 72 h [1] [µM]	IC50, cell viability 72 h [2] [µM]	IC50, cell viability 72 h [3] [µM]	IC50, cell viability 72 h [4] [µM]	IC50, cell viability 72 h [5] [µM]	IC50, cell viability 72 h [6] [µM]	IC50, cell viability 72 h [7] [µM]	IC50, cell viability 72 h [8] [µM]	IC50, cell viability 72 h [9] [µM]	IC50, cell viability 72 h [10] [µM]	IC50, cell viability 72 h [11] [µM]	IC50, cell viability 72 h [12] [µM]	IC50, cell viability 72 h [13] [µM]	IC50, cell viability 72 h [14] [µM]	IC50, cell viability 72 h [15] [µM]	IC50, cell viability 72 h [16] [µM]	IC50, cell viability 72 h [17] [µM]	IC50, cell viability 72 h [18] [µM]	IC50, cell viability 72 h [19] [µM]	IC50, cell viability 72 h [20] [µM]	IC50, cell viability 72 h [21] [µM]	IC50, cell viability 72 h [22] [µM]	IC50, cell viability 72 h [23] [µM]	IC50, cell viability 72 h [24] [µM]	IC50, cell viability 72 h [25] [µM]	IC50, cell viability 72 h [26] [µM]	IC50, cell viability 72 h [27] [µM]	IC50, cell viability 72 h [28] [µM]	IC50, cell viability 72 h [29] [µM]	IC50, cell viability 72 h [30] [µM]	IC50, cell viability 72 h [31] [µM]	IC50, cell viability 72 h [32] [µM]	IC50, cell viability 72 h [33] [µM]	IC50, cell viability 72 h [34] [µM]	IC50, cell viability 72 h [35] [µM]
NCI-H64 (Small Cell Lung Carcinoma)	> 0.001	> 10	> 1	> 10	> 2	> 20	> 0.3	> 10	> 1	> 1	0.527	> 1	0.597	> 10	0.0196	3.17	> 10	5.17	> 3	0.236	> 10	> 10	> 5	> 1	3.84	> 10	> 0.3	4.9	> 0.3	> 10	> 10	0.23	> 10	> 10	> 1
NCI-H1581 (Non-Small Cell Lung Carcinoma)	> 0.001	> 10	0.163	> 10	> 2	> 20	> 0.3	5.32	> 1	> 1	0.00382	> 1	> 1	> 10	> 1	> 10	> 10	> 10	> 3	1.77	> 10	> 10	3.23	> 1	> 10	> 10	0.0795	2.06	0.195	> 10	> 10	> 1	> 10	> 10	0.545
NCI-H1666 (Lung Adenocarcinoma)	> 0.001	> 10	> 1	> 10	> 2	> 20	> 0.3	> 10	> 1	> 1	0.794	> 1	> 1	> 10	> 1	> 10	3.2	> 10	> 3	> 3	7.17	> 10	> 5	> 1	> 10	> 10	0.238	> 10	> 0.3	> 10	> 10	> 1	> 10	> 10	0.103
NCI-H2066 (Squamous Cell Lung Carcinoma)	> 0.001	> 10	> 1	> 10	> 2	> 20	> 0.3	> 10	> 1	> 1	0.32	> 1	> 1	> 10	> 1	> 10	3.92	> 10	> 3	> 3	> 10	> 10	> 5	> 1	> 10	> 10	> 0.3	> 10	> 0.3	> 10	> 10	> 1	> 10	> 10	> 1
NY (Osteosarcoma)	> 0.001	> 10	> 1	> 10	> 2	> 20	> 0.3	> 10	> 1	> 1	0.00726	> 1	> 1	> 10	0.115	> 10	> 10	> 10	> 3	0.538	> 10	> 10	> 5	> 1	3.44	> 10	0.0161	> 10	0.041	> 10	> 10	> 1	> 10	> 10	> 1
